Here are results for one molecule from patent US8278482B2, “Antimicrobial N-chlorinated compositions” (priority 2008, dated 2012).

Assay type in all cases: cell-based
The subject of data set [1] is Staphylococcus aureus (MCC 91731). Nature of the data set: Antimicrobial activity (MBC), S. aureus MCC 91731. The settings on record: 1 h exposure at room temperature. On the procedure: (§1) To determine antimicrobial activity, Escherichia coli (ATCC 25922), Staphylococcus aureus (ATCC 29213), Pseudomonas aeruginosa (ATCC 27853), and Candida albicans (ATCC 10231) were used in primary screening. In addition, Escherichia coli (MCC 80392), Staphylococcus aureus (MCC 91731), Pseudomonas aeruginosa (MCC 4438), and Candida albicans (MCC 50319), provided by Alcon Laboratories, Fort Worth, Tex., were used. The microbial cultures were diluted in sterile saline pH 4 to prepare inocula. Test compounds were titrated by stepwise two-fold dilutions in sterile saline pH 4. A total of 1.0×10^5 to 1.0×10^6 Colony Forming Units (CFU)/mL microbe was added to each tube, mixed by gentle vortexing, and then incubated at room temperature for 1 h. Microbial plating on Petri dishes (Tryptic Soy agar or Saboraud's Dextrose agar) was performed immediately after the designated exposure after neutralization of the test article dilutions in Dey-Engley Broth. Plates were incubated at 37° C., and the numbers of microbes were counted by direct colony count to quantitate the surviving microbes as CFU/mL. Positive growth controls were made with sterile 0.9% saline. Compounds were dissolved in unbuffered isotonic saline (SAL) or phosphate buffered saline (PBS) at pH 4 or pH 7 (using HCl and/or NaOH as needed). All compounds were tested three times. The results are tabulated to show the comparison of antimicrobial effectiveness range of the compounds.
(§2) Data shown are the Minimum Bactericidal Concentration (MBC) or Minimum Fungicidal Concentration (MFC) (≧99.9% kill) in μg/mL.

For data set [2], the system named is Escherichia coli (ATCC 25922). Nature of the data set: Antimicrobial activity (MBC), E. coli ATCC 25922. The conditions noted are these: ATCC25922, E. coli ATCC 25922, pH 4 (Sal), 1 h exposure at room temperature, read-out: Minimum Bactericidal Concentration (MBC) (≧99.9% kill). As to the method:
as §1, §2

Data set [3] relates to mouse fibroblast cells (ATCC CCL-1, L929). Briefly: Cytotoxicity, WST-8 colorimetric assay. The settings on record: pH 4 (Sal), 60 min exposure. As to the method:
Cytotoxicity was assessed by a colorimetric assay system using the Dojindo™ cell counting kit containing 2-(2-methoxy-4-nitrophenyl)-3-(4-nitrophenyl)-5-(2,4-disulfophenyl)-2H-tetrazolium, monosodium salt (WST-8). In this assay, the WST-8 reagent was bioreduced by cellular dehydrogenases to a formazan product that is highly soluble in tissue culture medium.
In a standard assay, mouse fibroblast cells (ATCC CCL-1, L929), were cultured in Minimum Essential Medium, α-medium supplemented with 10% heat inactivated fetal bovine serum, L-glutamine, penicillin and streptomycin. Cells were trypsinized and counted under the microscope and seeded at 1.5×10^4 total cells per 100 μL per well of a flat-bottom 96-well plate in order to achieve ˜80% confluence after overnight incubation at 37° C. On the day of the assay, the tissue culture medium was removed and replaced with 30 μL of fresh medium.
Test articles were prepared as 2-fold serial dilutions and 170 μL of each dilution is added into each of 4-wells (total volume per well=200 μL). The test plate was then returned to the 37° C. incubator for 60 min. Immediately after the exposed time, test article from each well was replaced with 200 μL of fresh media. Plates were incubated at 37° C. for 18-20 hours. The following day growth medium was replaced with 100 μL/well of fresh medium containing 10 μL WST-8 reagent. Cells were incubated under growth conditions (5% CO2 at 37° C. humidified incubator), protected from light, until color development was achieved (usually 1-4 hours). Absorbance was read at 450 nm with reference wavelength at 750 nm using Molecular Device SpectraMax M5 plate reader. Untreated or vehicle only treated cells receiving WST-8 reagent served as positive cell proliferation controls.
The absorbance A450/750 from each well of untreated cells and from each well within the dilution series was measured. […] Next, a non-linear regression (curve fit) analysis was performed on all the absorbance data measured from the dilution series, including the absorbance data obtained from wells of the untreated control cells. For each dilution within the dilution series, an average A450/750 was calculated from the four replicate wells.

Data set [4] relates to Pseudomonas aeruginosa (MCC 4438). Briefly: Antimicrobial activity (MBC), P. aeruginosa MCC 4438. The conditions noted are these: 1 h exposure at room temperature. As to the method: as §1, §2
The test system of data set [5] is Candida albicans (MCC 50319). Nature of the data set: Antimicrobial activity (MFC), C. albicans MCC 50319. The conditions noted are these: 1 h exposure at room temperature. On the procedure: as §1, §2
The subject of data set [6] is Candida albicans (ATCC 10231). Briefly: Antimicrobial activity (MFC), C. albicans ATCC 10231. The settings on record: ATCC10231, C. albicans ATCC 10231, pH 4 (Sal), 1 h exposure at room temperature, read-out: Minimum Fungicidal Concentration (MFC) (≧99.9% kill). As to the method: as §1, §2
For data set [7], the system named is Staphylococcus aureus (ATCC 29213). Nature of the data set: Antimicrobial activity (MBC), S. aureus ATCC 29213. The conditions noted are these: ATCC29213, S. aureus ATCC 29213, pH 4 (Sal), 1 h exposure at room temperature, read-out: Minimum Bactericidal Concentration (MBC) (≧99.9% kill). On the procedure:
as §1, §2

Data set [8] has as its system Escherichia coli (MCC 80392). Nature of the data set: Antimicrobial activity (MBC), E. coli MCC 80392. The conditions noted are these: 1 h exposure at room temperature. On the procedure: as §1, §2

A value given as a limit tells only on which side of the number the result lay.

As to `CC(C)(CC[N+]1(C)CCCCC1)N(Cl)Cl.[Cl-]` [Compound 21-80, 1-(3-(Dichloroamino)-3-methylbutyl)-1-methylpiperidinium chloride], the “Minimum Bactericidal Concentration (MBC) (≧99.9% kill)” value in data set [1] (pH 4 (Sal)) was 4 µg/mL; in data set [1] (pH 7 (PBS)), over 256 µg/mL; in data set [4] (pH 4 (Sal)), 4 µg/mL; in data set [4] (pH 7 (PBS)) it was over 256 µg/mL; in data set [8] (pH 4 (Sal)), 4 µg/mL; in data set [8] (pH 7 (PBS)), 256 µg/mL. For the same molecule, the MBC in data set [2] stood at 2 µg/mL; in data set [7], 4 µg/mL. Also, in data set [3], the “CT50 (concentration that results in survival of 50% of the cells)” value is 0.9 mM. Also, the “Minimum Fungicidal Concentration (MFC) (≧99.9% kill)” value is 64 µg/mL in data set [5] (pH 4 (Sal)) and over 512 µg/mL in data set [5] (pH 7 (PBS)). The MFC in data set [6] is 32 µg/mL.
